The results in this text go back to patent US20260199323A1, “LIGAND COMPOUNDS FOR E3 UBIQUITIN LIGASE, PROTEIN DEGRADERS DEVELOPED ON BASIS OF LIGAND COMPOUNDS, AND USES THEREOF” (GLUETACS THERAPEUTICS (SHANGHAI) CO., LTD., priority 2021, published 2026).

Like-named read-outs stand apart in the source and are kept apart here.

Format in all cases: cell-based, Human
Test [1] has as its system SW620. As to the kind of experiment: CCK-8 tumor cell proliferation, SW620. The conditions noted are these: for IC50: Homo sapiens, SW-620, Table 18, FAK inhibitor based, SW620, read-out: IC50 inhibiting proliferation of tumor cells, SW620; for IC50 for inhibiting the proliferation of tumor cells, SW620: Table 8, designed based on ER inhibitors, 96 h. The procedure, abridged:
(§1)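 STR-authenticated, mycoplasma-negative cells were cultured at 37 °C with 5% CO2. One day after plating, they were treated with a 5-fold serial dilution of compound (10 points, highest 10 μM). CCK-8 was used to assess viability, giving IC50 values.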

Test [2] deals with CAL-62. Kind of test: CCK-8 tumor cell proliferation, CAL-62. More on the design: IC50 for inhibiting the proliferation of tumor cells, CAL-62: scale not given here. The conditions noted are these: for IC50: Homo sapiens, Table 18, FAK inhibitor based, CAL-62, read-out: IC50 inhibiting proliferation of tumor cells, CAL-62; for IC50 for inhibiting the proliferation of tumor cells, CAL-62: Table 8, designed based on ER inhibitors, 72 h. The procedure, abridged:
as §1

In test [3] the test system is Vcap. As to the kind of experiment: CCK-8 tumor cell proliferation, Vcap. Conditions: for IC50: Homo sapiens, VCaP, Vcap, read-out: IC50 inhibiting proliferation of tumor cells, Vcap; for IC50 for inhibiting the proliferation of tumor cells, Vcap: Table 8, designed based on ER inhibitors, 96 h. As to the method:
(§2) The tumor cells used herein were cultured in a cell culture medium listed in table 4 at 37° C. in an incubator with 5% CO2. Prior to experimentation, all cells used were correctly identified by STR profiling, and tested negative for mycoplasma through routine screenings.
(§3) IC50 values of the compounds of the present disclosure (including the compounds in Tables 1 and 3, and compounds of examples) were measured using the Meilun Cell Counting Kit-8 kit from Dalian Meilun Biotech Co., Ltd. Assay details are as follows: tumor cells were seeded in a 96-well plate at a density listed in Table 5. After 24 h, 100 μL of the inoculated cells were treated with 0.5 μL of the compounds of the present disclosure (including the compounds in Tables 1 and 3, and compounds of examples) at 10 different successively decreasing concentrations (starting at the highest concentration of 10 μM; 5-fold serial dilutions). After the cells were treated with the compounds of the present disclosure for a period of time, the cell viability detection reagent was added to the culture medium for cell viability assessment according to the instructions provided with the CCK-8 kit. […] The growth inhibition of the compounds of the present disclosure on cells was plotted by Prism Graphpad software, and the IC50 values of the compounds of the present disclosure were calculated therefrom.

Test [4] has as its system CCRF-CEM. Kind of test: CCK-8 tumor cell proliferation, CCRF-CEM. More on the design: IC50 for inhibiting the proliferation of tumor cells, CCRF-CEM: scale not given here. The conditions noted are these: for IC50 for inhibiting the proliferation of tumor cells, CCRF-CEM: Table 8, designed based on ER inhibitors, 96 h; for IC50: Homo sapiens, CCRF-CEM, read-out: IC50 inhibiting proliferation of tumor cells, CCRF-CEM. The procedure, abridged: as §1

Test [5] relates to PC-9. As to the kind of experiment: CCK-8 tumor cell proliferation, PC-9. The conditions noted are these: Homo sapiens, PC-9, read-out: IC50 inhibiting proliferation of tumor cells, PC-9.
Test [6] deals with Mino. Kind of test: CCK-8 tumor cell proliferation, Mino. The conditions noted are these: Homo sapiens, Mino, read-out: IC50 inhibiting proliferation of tumor cells, Mino. In outline:
as §1

Test [7] relates to MDA-MB-231. Kind of test: CCK-8 tumor cell proliferation, MDA-MB-231. The conditions noted are these: Homo sapiens, MDA-MB-231, read-out: IC50 inhibiting proliferation of tumor cells, MDA-MB-231. The procedure, abridged: as §1
In test [8] the test system is Jurkat. As to the kind of experiment: CCK-8 tumor cell proliferation, Jurkat. The conditions noted are these: Homo sapiens, Table 22, NTRK inhibitor based, read-out: IC50 inhibiting proliferation of tumor cells, Jurkat. As to the method:
as §2, §3

The test system of test [9] is MV-4-11. Kind of test: CCK-8 tumor cell proliferation, MV-4-11. The conditions noted are these: Homo sapiens, MV4-11; Table 15, ALK inhibitor based; MV-4-11; read-out: IC50 inhibiting proliferation of tumor cells, MV-4-11. As to the method: as §2, §3
Test [10] deals with SR. Kind of test: CCK-8 tumor cell proliferation, SR. Conditions: Homo sapiens; Table 15, ALK inhibitor based; SR; read-out: IC50 inhibiting proliferation of tumor cells, SR. In outline: as §1

For `CNC(=O)c1ccccc1Nc1cc(Nc2cc(C)c(N3CCN(Cc4ccc5c(c4F)CN(C4CCC(=O)NC4=O)C5=O)CC3)cc2OC(C)C)ncc1C(F)(F)F` (centres unmarked) [GT-03941, 2-((2-((4-(4-((2-(2,6-dioxopiperidin-3-yl)-4-fluoro-1-oxoisoindolin-5-yl)methyl)piperazin-1-yl)-2-isopropoxy-5-methylphenyl)amino)-5-(trifluoromethyl)pyridin-4-yl)amino)-N-methylbenzamide], the IC50 in test [1] is less than 50 nM; in [2] it was less than 50 nM; in [3] (Table 18, FAK inhibitor based) it was 100 to 500 nM.

Take `CCC(=C(c1ccc(O)cc1)c1ccc(N2CCN(Cc3ccc4c(c3)C(=O)N(C3CCC(=O)NC3=O)C4=O)CC2)cc1)c1ccc(O)cc1` (centres unmarked) [GT-04148, 5-((4-(4-(1,2-bis(4-hydroxyphenyl)but-1-en-1-yl)phenyl)piperazin-1-yl)methyl)-2-(2,6-dioxopiperidin-3-yl)isoindoline-1,3-dione]: the “IC50 for inhibiting the proliferation of tumor cells, CAL-62” value in test [2] is listed as “A+”. In addition, the “IC50 for inhibiting the proliferation of tumor cells, CCRF-CEM” value in [4] is listed as “A+”. Further, in test [3], the “IC50 for inhibiting the proliferation of tumor cells, Vcap” value is “A+”.

Take `CCC(=C(c1ccc(O)cc1)c1ccc(N2CCN(Cc3ccc4c(c3F)CN(C3CCC(=O)NC3=O)C4=O)CC2)cc1)c1ccc(O)cc1` (centres unmarked) [GT-04144, 3-(5-((4-(4-(1,2-bis(4-hydroxyphenyl)but-1-en-1-yl)phenyl)piperazin-1-yl)methyl)-4-fluoro-1-oxoisoindolin-2-yl)piperidine-2,6-dione]: the “IC50 for inhibiting the proliferation of tumor cells, SW620” value in test [1] was “A+”. Also, in [2], the “IC50 for inhibiting the proliferation of tumor cells, CAL-62” value is given as “A+”. Also, the “IC50 for inhibiting the proliferation of tumor cells, CCRF-CEM” value in test [4] is “A+”. Further, in [3], the “IC50 for inhibiting the proliferation of tumor cells, Vcap” value is “A+”.

In the case of `CCC(=C(c1ccc(O)cc1)c1ccc(N2CCN(Cc3cc(F)c4c(c3)CN(C3CCC(=O)NC3=O)C4=O)CC2)cc1)c1ccc(O)cc1` (centres unmarked) [GT-04146, 3-(5-((4-(4-(1,2-bis(4-hydroxyphenyl)but-1-en-1-yl)phenyl)piperazin-1-yl)methyl)-7-fluoro-1-oxoisoindolin-2-yl)piperidine-2,6-dione], the “IC50 for inhibiting the proliferation of tumor cells, SW620” value in [1] was “A+”. In addition, in test [2], the “IC50 for inhibiting the proliferation of tumor cells, CAL-62” value is listed as “A+”. Besides, the “IC50 for inhibiting the proliferation of tumor cells, CCRF-CEM” value in [4] is recorded as “A+”. Also, the “IC50 for inhibiting the proliferation of tumor cells, Vcap” value in [3] was “A+”.

For the compound `CN(Cc1ccc2c(c1)CN(C1CCC(=O)NC1=O)C2=O)C1CCN(c2ccc(Nc3ncc(C(F)(F)F)c(NCc4nccnc4N(C)S(C)(=O)=O)n3)cc2)CC1` (centres unmarked) [GT-03705, N-(3-(((2-((4-(4-(((2-(2,6-dioxopiperidin-3-yl)-1-oxoisoindolin-5-yl)methyl)(methyl)amino)piperidin-1-yl)phenyl)amino)-5-(trifluoromethyl)pyrimidin-4-yl)amino)methyl)pyrazin-2-yl)-N-methylmethanesulfonamide], the IC50 in test [1] was 100 to 500 nM; in [5] (Table 18, FAK inhibitor based), 1000 to 5000 nM; in [6] (Table 18, FAK inhibitor based), less than 50 nM; in test [4] (Table 18, FAK inhibitor based) it was 50 to 100 nM; in test [3] (Table 18, FAK inhibitor based), 100 to 500 nM; in test [7] (Table 18, FAK inhibitor based) it was less than 50 nM.

`O=C1CCC(N2C(=O)c3ccc(CBr)cc3C2=O)C(=O)N1` (centres unmarked) [GT-03855]: the “IC50 for inhibiting the proliferation of tumor cells, CAL-62” value in [2] is given as “A+”. The “IC50 for inhibiting the proliferation of tumor cells, CCRF-CEM” value in test [4] is listed as “A+”. Besides, the “IC50 for inhibiting the proliferation of tumor cells, Vcap” value in test [3] was “A+”.

As to `CNC(=O)c1ccccc1Nc1cc(Nc2cc(C)c(N3CCN(Cc4ccc5c(c4)CN(C4CCC(=O)NC4=O)C5=O)CC3)cc2OC(C)C)ncc1C(F)(F)F` (centres unmarked) [GT-03940, 2-((2-((4-(4-((2-(2,6-dioxopiperidin-3-yl)-1-oxoisoindolin-5-yl)methyl)piperazin-1-yl)-2-isopropoxy-5-methylphenyl)amino)-5-(trifluoromethyl)pyridin-4-yl)amino)-N-methylbenzamide], the IC50 was 50 to 100 nM in test [1]; less than 50 nM in test [2]; 500 to 1000 nM in [3] (Table 18, FAK inhibitor based).

On to `O=C1CCC(N2Cc3cc(CN4CCN(c5cccc(-c6cnc7ccc(N8CCC[C@@H]8c8cccc(F)c8)nn67)n5)CC4)c(F)cc3C2=O)C(=O)N1` (stereo partly drawn) [GT-03866, 3-(6-fluoro-5-((4-(6-(6-((R)-2-(3-fluorophenyl)pyrrolidin-1-yl)imidazo[1,2-b]pyridazin-3-yl)pyridin-2-yl)piperazin-1-yl)methyl)-1-oxoisoindolin-2-yl)piperidine-2,6-dione], for which the IC50 in test [4] (Table 22, NTRK inhibitor based) is less than 50 nM; in test [3] (Table 22, NTRK inhibitor based), 50 to 100 nM; in test [8], less than 50 nM.

For `CN(c1nccnc1CNc1nc(Nc2ccc(N3CCC(N4CCN(Cc5ccc6c(c5)CN(C5CCC(=O)NC5=O)C6=O)CC4)CC3)cc2)ncc1C(F)(F)F)S(C)(=O)=O` (centres unmarked) [GT-03706, N-(3-(((2-((4-(4-(4-((2-(2,6-dioxopiperidin-3-yl)-1-oxoisoindolin-5-yl)methyl)piperazin-1-yl)piperidin-1-yl)phenyl)amino)-5-(trifluoromethyl)pyrimidin-4-yl)amino)methyl)pyrazin-2-yl)-N-methylmethanesulfonamide], the IC50 in [1] is 500 to 1000 nM; in test [5] (Table 18, FAK inhibitor based), 1000 to 5000 nM; in test [6] (Table 18, FAK inhibitor based), 100 to 500 nM; in [4] (Table 18, FAK inhibitor based) it was 100 to 500 nM; in test [3] (Table 18, FAK inhibitor based) it was 100 to 500 nM; in [7] (Table 18, FAK inhibitor based) it was less than 50 nM.

Regarding `CCc1cc2c(cc1N1CCC(N3CCN(Cc4cccc5c4CN(C4CCC(=O)NC4=O)C5=O)CC3)CC1)C(C)(C)c1[nH]c3cc(C#N)ccc3c1C2=O` (centres unmarked) [GT-03764, 8-(4-(4-((2-(2,6-dioxopiperidin-3-yl)-1-oxoisoindolin-4-yl)methyl)piperazin-1-yl)piperidin-1-yl)-9-ethyl-6,6-dimethyl-11-oxo-6,11-dihydro-5H-benzo[b]carbazole-3-carbonitrile], the IC50 in [9] is 50 to 100 nM; in test [5] (Table 15, ALK inhibitor based) it was 100 to 500 nM; in [6] (Table 15, ALK inhibitor based) it was 50 to 100 nM; in test [7] (Table 15, ALK inhibitor based), 50 to 100 nM; in test [10], less than 50 nM.

For the compound `CCC(=C(c1ccc(O)cc1)c1ccc(N2CCN(Cc3cccc4c3CN(C3CCC(=O)NC3=O)C4=O)CC2)cc1)c1ccc(O)cc1` (centres unmarked) [GT-04147, 3-(4-((4-(4-(1,2-bis(4-hydroxyphenyl)but-1-en-1-yl)phenyl)piperazin-1-yl)methyl)-1-oxoisoindolin-2-yl)piperidine-2,6-dione], the “IC50 for inhibiting the proliferation of tumor cells, CAL-62” value in test [2] was “A+”. Also, in test [4], the “IC50 for inhibiting the proliferation of tumor cells, CCRF-CEM” value is on record as “A+”. Also, the “IC50 for inhibiting the proliferation of tumor cells, Vcap” value in [3] was “A+”.

Regarding `CCC(=C(c1ccc(O)cc1)c1ccc(N2CCN(Cc3cc4c(cc3F)C(=O)N(C3CCC(=O)NC3=O)C4)CC2)cc1)c1ccc(O)cc1` (centres unmarked) [GT-04145, 3-(5-((4-(4-(1,2-bis(4-hydroxyphenyl)but-1-en-1-yl)phenyl)piperazin-1-yl)methyl)-6-fluoro-1-oxoisoindolin-2-yl)piperidine-2,6-dione], in test [1], the “IC50 for inhibiting the proliferation of tumor cells, SW620” value is “A+”. Besides, the “IC50 for inhibiting the proliferation of tumor cells, CAL-62” value in [2] is recorded as “A+”. The “IC50 for inhibiting the proliferation of tumor cells, CCRF-CEM” value in [4] is recorded as “A+”. Also, the “IC50 for inhibiting the proliferation of tumor cells, Vcap” value in test [3] is recorded as “A+”.
